# Reference: US8871681B2, “Herbicidal compositions comprising 4-amino-3-chloro-5-fluoro-6-(4-chloro-2-fluoro-3-methoxyphenyl) pyridine-2-carboxylic acid or a derivative thereof and certain sulfonylureas” (Dow AgroSciences LLC, priority 2012, dated 2014)
# What was measured:
# [1] = system: DIGSA (Digitaria sanguinalis, large crabgrass); assay: Postemergence foliar-applied weed control, direct seeded rice, greenhouse (Example I); assay type: in vivo, Digitaria sanguinalis (L.) Scop.
# Description: (§1) Seeds or nutlets of the desired test plant species were planted in a soil matrix prepared by mixing a loam or sandy loam soil (e.g., 28.6 percent silt, 18.8 percent clay, and 52.6 percent sand, with a pH of about 5.8 and an organic matter content of about 1.8 percent) and calcareous grit in an 80 to 20 ratio. The soil matrix was contained in plastic pots with a volume of 1 quart and a surface area of 83.6 square centimeters (cm^2). When required to ensure good germination and healthy plants, a fungicide treatment and/or other chemical or physical treatment was applied. The plants were grown for 8-22 days in a greenhouse with an approximate 14 h photoperiod which was maintained at about 29° C. during the day and 26° C. during the night. Nutrients (Peters Excel® 15-5-15 5-Ca 2-Mg and iron chelate) were applied in the irrigation solution as needed and water was added on a regular basis. Supplemental lighting was provided with overhead metal halide 1000-Watt lamps as necessary. The plants were employed for testing when they reached the first through fourth true leaf stage.
# (§2) Treatments consisted of the acid or esters of 4-amino-3-chloro-5-fluoro-6-(4-chloro-2-fluoro-3-methoxy-phenyl)pyridine-2-carboxylic acid (Compound A), each formulated as an SC, and various herbicidal components alone and in combination. Forms of compound A were applied on an acid equivalent basis.
# (§3) Other herbicidal components were applied on an active ingredient basis and included acetolactate synthase (ALS)-inhibiting herbicides (sulfonylurea chemical class) azimsulfuron formulated as Gulliver®, bensulfuron-methyl formulated as Londax® 60DF, cyclosulfamuron (technical material), ethoxysulfuron formulated as Sunrice® 15 WDG, flazasulfuron formulated as Katana®, flucetosulfuron formulated as Sukedachi® 1KG G, foramsulfuron formulated as Option®, imazosulfuron formulated as Brazzos® WG, iodosulfuron-methyl-sodium formulated as Hussar®, metsulfuron-methyl formulated as Lorate®, nicosulfuron formulated as Accent®, orthosulfamuron formulated as Strada® WG, primisulfuron-methyl (technical material), propyrisulfuron formulated as Zeta One®, rimsulfuron formulated as Matrix® WG, sulfometuron-methyl formulated as Oust®, and trifloxysulfuron-sodium formulated as Monument® 75WG.
# (§4) Treatment requirements were calculated based upon the rates being tested, the concentration of active ingredient or acid equivalent in the formulation, and a 12 mL application volume at a rate of 187 L/ha.
# (§5) For treatments comprised of formulated compounds, measured amounts of compounds were placed individually in 25 mL glass vials and diluted in a volume of 1.25% (v/v) Agri-Dex® crop oil concentrated to obtain 12× stock solutions. […] Application solutions were prepared by adding an appropriate amount of each stock solution (e.g., 1 mL) and diluted to the appropriate final concentrations with the addition of 10 mL of an aqueous mixture of 1.25% (v/v) crop oil concentrate so that the final spray solutions contained 1.25+/−0.05% (v/v) Agrcrop oil concentrate.
# (§6) For treatments comprised of formulated and technical compounds, weighed amounts of the technical materials were placed individually in 25 mL glass vials and dissolved in a volume of 97:3 v/v acetone/DMSO to obtain 12× stock solutions, and measured amounts of the formulated compounds were placed individually in 25 mL glass vials and diluted in a volume of 1.25% (v/v) crop oil concentrate to obtain 12× stock solutions. […] Application solutions were prepared by adding an appropriate amount of each stock solution (e.g., 1 mL) and diluted to the appropriate final concentrations with the addition of an appropriate amount of an aqueous mixture of 1.5% (v/v) crop oil concentrate so that the final spray solutions contained 1.25% (v/v) crop oil concentrate. […]
# [2] = system: SCPMA (Bolboschoenus maritimus or Schoenoplectus maritimus, sea clubrush); assay: In-water applied weed control, transplanted paddy rice, greenhouse (Example II); assay type: in vivo, Bolboschoenus maritimus (L.) Palla
# Description: (§7) Weed seeds or nutlets of the desired test plant species were planted in puddled soil (mud) prepared by mixing a shredded, non-sterilized mineral soil (50.5 percent silt, 25.5 percent clay, and 24 percent sand, with a pH of about 7.6 and an organic matter content of about 2.9 percent) and water at a 1:1 volumetric ratio. The prepared mud was dispensed in 365 mL aliquots into 16-ounce (oz.) non-perforated plastic pots with a surface area of 86.59 square centimeters (cm^2) leaving a headspace of 3 centimeters (cm) in each pot. Rice seeds were planted in Sun Gro MetroMix® 306 planting mixture, which typically has a pH of 6.0 to 6.8 and an organic matter content of about 30 percent, in plastic plug trays. Seedlings at the second or third leaf stage of growth were transplanted into 860 mL of mud contained in 32-oz. non-perforated plastic pots with a surface area of 86.59 cm^2 4 days prior to herbicide application. The paddy was created by filling the headspace of the pots with 2.5 to 3 cm of water. When required to ensure good germination and healthy plants, a fungicide treatment and/or other chemical or physical treatment was applied. The plants were grown for 4-22 days in a greenhouse with an approximate 14 h photoperiod which was maintained at about 29′C during the day and 26° C. during the night. Nutrients were added as Osmocote® (19:6:12, N:P:K+minor nutrients) at 2 g per 16-oz. pot and 4 g per 32-oz. pot. Water was added on a regular basis to maintain the paddy flood, and supplemental lighting was provided with overhead metal halide 1000-Watt lamps as necessary. The plants were employed for testing when they reached the first through fourth true leaf stage.
# (§8) Treatments consisted of the acid or esters of 4-amino-3-chloro-5-fluoro-6-(4-chloro-2-fluoro-3-methoxy-phenyl)pyridine-2-carboxylic acid (compound A) each formulated as an SC and various herbicidal components alone and in combination. Forms of compound A were applied on an acid equivalent basis.
# (§9) Other herbicidal components were applied on an active ingredient basis and included acetolactate synthase (ALS)-inhibiting herbicides (sulfonylurea chemical class), azimsulfuron formulated as Gulliver®, bensulfuron-methyl formulated as Londax® 60DF, cyclosulfamuron (technical grade materail), ethoxysulfuron formulated as Sunrice® 15 WDG, flucetosulfuron formulated as Sukedachi® 1KG G, imazosulfuron formulated as Brazzos®, metsulfuron-methyl formulated as Lorate®, nicosulfuron formulated as Accent®, orthosulfamuron formulated as Strada® WG, propyrisulfuron formulated as Zeta One®, and rimsulfuron formulated as Matrix® WG.
# (§10) Treatment requirements for each compound or herbicidal component were calculated based upon the rates being tested, the concentration of active ingredient or acid equivalent in the formulation, an application volume of 2 mL per component per pot, and an application area of 86.59 cm^2 per pot.
# (§11) For formulated compounds, a measured amount was placed in an individual 100 or 200 mL glass vial and was dissolved in a volume of 1.25% (v/v) Agri-Dex® crop oil concentrate to obtain application solutions.
# (§12) For technical grade compounds, a weighed amount was placed in an individual 100 to 200 mL glass vial and was dissolved in a volume of acetone to obtain concentrated stock solutions. […] The concentrated stock solutions obtained were diluted with an equivalent volume of an aqueous mixture containing 2.5% (v/v) crop oil concentrate so that the final application solutions contained 1.25% (v/v) crop oil concentrate.
# (§13) Applications were made by injecting with a pipetter appropriate amounts of the application solutions, individually and sequentially, into the aqueous layer of the paddy. Control plants were treated in the same manner with the solvent blank. Applications were made so that all treated plant material received the same concentrations of acetone and crop oil concentrate. […]
# [3] = system: CYPIR (Cyperus iria, rice flatsedge); assay: Postemergence foliar-applied weed control, direct seeded rice, greenhouse (Example I); assay type: in vivo, Cyperus iria L.; details: 22 DAA; 12.5 gai/ha
# Description: as §1, §2, §3, §4, §5, §6
# [4] = system: BRAPP (Brachiaria platyphylla, broadleaf signalgrass); assay: as above; assay type: in vivo, Brachiaria platyphylla (Griseb.) Nash; details: Urochloa platyphylla, post-emergence, 480 h, 20 DAA, read-out: Visual Weed Control (%) Obs
# Description: as §1, §2, §3, §4, §5, §6
# [5] = system: ECHOR (Echinochloa oryzoides, early watergrass); assay: In-water applied weed control, transplanted paddy rice, greenhouse (Example II); assay type: in vivo, Echinochloa oryzoides (Ard.) Fritsch
# Description: as §7, §8, §9, §10, §11, §12, §13
# [6] = system: LEFCH (Leptochloa chinensis, Chinese sprangletop); assay: Postemergence foliar-applied weed control, direct seeded rice, greenhouse (Example I); assay type: in vivo, Leptochloa chinensis (L.) Nees; details: Dinebra chinensis, post-emergence
# Description: as §1, §2, §3, §4, §5, §6
# [7] = Table 28, second set, 25 gai/ha alone
compound,measurement,setting,value
COc1cc(OC)nc(NC(=O)[N-]S(=O)(=O)c2ncccc2OCC(F)(F)F)n1.[Na+] [Trifloxysulfuron-sodium],Visual Weed Control (%) - 21 DAA DIGSA Obs,"[1]; Table 27, foliar-applied, 24 gai/ha alone",65%
"COc1cc(OC)nc(NC(=O)NS(=O)(=O)Nc2ccccc2C(=O)C2CC2)n1 [Cyclosulfamuron, N-[[[2-(cyclopropylcarbonyl)phenyl]amino]sulfonyl]-N′-(4,6-dimethoxy-2-pyrimidinyl)urea, reference compound]",Visual Weed Control (%) - 21 DAA SCPMA Obs,"[2]; Table 33, 12.5 gai/ha alone",75%
same,Visual Weed Control (%) Obs,[3],95%
"COc1cc(OC)nc(NC(=O)NS(=O)(=O)c2c(-c3nnn(C)n3)cnn2C)n1 [Azimsulfuron, N-[[(4,6-dimethoxy-2-pyrimidinyl)amino]carbonyl]-1-methyl-4-(2-methyl-2H-tetrazol-5-yl)-1H-pyrazole-5-sulfonamide, reference compound]",pest or weed control at 3.125 g/ha,[4]; 3.125 gai/ha,0%
same,pest or weed control at 6.25 g/ha,[4]; 6.25 gai/ha,0%
same,pest or weed control at 12.5 g/ha,[4]; 12.5 gai/ha,60%
same,Visual Weed Control (%) - 20 DAA ECHOR Obs,"[5]; Table 28, 2.5 gai/ha alone",0%
same,Visual Weed Control (%) - 20 DAA ECHOR Obs,[5]; [7],60%
same,Visual Weed Control (%) - 20 DAA ECHOR Obs,"[5]; Table 29, 2.5 gai/ha alone",0%
same,Visual Weed Control (%) - 20 DAA ECHOR Obs,"[5]; Table 29, 5 gai/ha alone",20%
same,Visual Weed Control (%) - 20 DAA ECHOR Obs,"[5]; Table 29, 25 gai/ha alone",60%
same,Visual Weed Control (%) - 20 DAA ECHOR Obs,"[5]; Table 30, 25 gai/ha alone",60%
same,pest or weed control at 3.125 g/ha,"[6]; 480 h, 20 DAA, 3.125 gai/ha, read-out: Visual Weed Control (%) Obs",0%
same,pest or weed control at 6.25 g/ha,"[6]; 480 h, 20 DAA, 6.25 gai/ha, read-out: Visual Weed Control (%) Obs",0%
same,Visual Weed Control (%) - 20 DAA SCPMA Obs,"[2]; Table 28, 2.5 gai/ha alone",70%
same,Visual Weed Control (%) - 20 DAA SCPMA Obs,[2]; [7],85%
same,Visual Weed Control (%) - 20 DAA SCPMA Obs,"[2]; Table 29, 2.5 gai/ha alone",70%
same,Visual Weed Control (%) - 20 DAA SCPMA Obs,"[2]; Table 29, 25 gai/ha alone",85%
"COC(=O)c1ccccc1S(=O)(=O)NC(=O)Nc1nc(OC(F)F)cc(OC(F)F)n1 [Primisulfuron-methyl, methyl 2-[[[[[4,6-bis(difluoromethoxy)-2-pyrimidinyl]amino]carbonyl]amino]sulfonyl]benzoate]",pest or weed control at 15 g/ha,"[6]; 504 h, read-out: Visual Weed Control (%) Obs, 21 DAA, 15 gai/ha",40%
same,pest or weed control at 30 g/ha,"[6]; 504 h, read-out: Visual Weed Control (%) Obs, 21 DAA, 30 gai/ha",60%
"COc1cc(OC)nc(NC(=O)NS(=O)(=O)c2cc(NC=O)ccc2C(=O)N(C)C)n1 [Foramsulfuron, 2-[[[[(4,6-dimethoxy-2-pyrimidinyl)amino]carbonyl]amino]sulfonyl]-4-(formylamino)-N,N-dimethylbenzamide]",pest or weed control at 20 g/ha,"[6]; 504 h, 21 DAA, 20 gai/ha, read-out: Visual Weed Control (%) Obs",0%
same,pest or weed control at 40 g/ha,"[6]; 504 h, 21 DAA, 40 gai/ha, read-out: Visual Weed Control (%) Obs",25%
"COC(=O)c1ccccc1S(=O)(=O)NC(=O)Nc1nc(C)cc(C)n1 [Sulfometuron-methyl, methyl 2-[[[[(4,6-dimethyl-2-pyrimidinyl)amino]carbonyl]amino]sulfonyl]benzoate, reference compound]",Visual Weed Control (%) Obs,"[1]; 22 DAA, 35 gai/ha",85%
